Laboratory results published in patent publication US7998995B2 (Exelixis Patent Company LLC, priority 2006, dated 2011).

Columns and labels:
[1] = test system: T1, LXR; experiment: Measured EC50 or IC50 for LXR (LXRα and/or LXRβ; assay and subtype not given); conditions: IC50 or EC50 class, subtype not specified
T1 construct: fused on or other part: GST fused to the LBD in the FRET assay
Description: (§1) Measured EC50 or IC50 for LXR, and FXR for Compounds of the Invention
(§2) LXR and FXR activities for various compounds of the invention are presented in the following table; those compounds with EC50 or IC50 values <10 μM for at least one of LXRα, LXRβ or FXR are considered to be active. In the following Table, IC50 or EC50 data is represented as follows: A<1 μM, B=1-10 μm, and C>10 μM.

[2] = target: T2, FXR (Homo sapiens, UniProt Q96RI1); experiment: Measured EC50 or IC50 for FXR (assay not given); conditions: IC50 or EC50 class; assay not specified
T2 sequence (Q96RI1 1-472 isoform Q96RI1-2): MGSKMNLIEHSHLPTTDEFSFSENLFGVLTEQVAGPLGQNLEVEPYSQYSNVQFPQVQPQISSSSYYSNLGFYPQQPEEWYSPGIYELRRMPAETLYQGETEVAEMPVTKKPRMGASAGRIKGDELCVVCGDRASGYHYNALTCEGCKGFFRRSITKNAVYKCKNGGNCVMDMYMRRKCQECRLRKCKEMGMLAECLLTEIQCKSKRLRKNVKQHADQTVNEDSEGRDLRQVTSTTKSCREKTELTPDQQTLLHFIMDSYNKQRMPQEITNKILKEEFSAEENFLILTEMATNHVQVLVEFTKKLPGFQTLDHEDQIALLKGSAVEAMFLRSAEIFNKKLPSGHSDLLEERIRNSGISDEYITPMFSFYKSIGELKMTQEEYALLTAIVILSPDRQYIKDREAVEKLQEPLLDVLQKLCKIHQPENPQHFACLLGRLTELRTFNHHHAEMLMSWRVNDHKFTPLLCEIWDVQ
Description: as §1, §2

EC50 [1] [nM] | EC50 [2] [nM] | SMILES
< 1000 | 1000 to 10000 | CC(C)(O)c1cc(-c2ccc(-c3cccc(S(C)(=O)=O)c3)s2)n(-c2c(F)cccc2C(F)(F)F)n1 [Example 951]
< 1000 | 1000 to 10000 | CC(C)(O)c1nn(-c2ccc(-c3cccc(S(C)(=O)=O)c3)cc2F)c(-c2c(F)cccc2Cl)c1Cl [Example 964, 2-{4-chloro-5-(2-chloro-6-fluorophenyl)-1-[3-fluoro-3′-(methysulfonyl)biphenyl-4-yl]-1H-pyrazol-3-yl}propan-2-ol]
< 1000 | 1000 to 10000 | CC(C)(O)c1cc(-c2ccc(-c3cccc(S(C)(=O)=O)c3)s2)n(-c2c(F)cccc2Cl)n1 [Example 950, 2-[1-(2-chloro-6-fluorophenyl)-5-{5-[3-(methylsulfonyl)phenyl]-2-thienyl}-1H-pyrazol-3-yl]propan-2-ol]
1000 to 10000 | 1000 to 10000 | Cc1cc(-n2nc(C(C)(C)O)cc2-c2c(Cl)cccc2Cl)ccc1-c1cccc(S(C)(=O)=O)c1 [Example 970, 2-{5-(2,6-dichlorophenyl)-1-[2-methyl-3′-(methylsulfonyl)biphenyl-4-yl]-1H-pyrazol-3-yl}propan-2-ol]
< 1000 | < 1000 | CC(C)c1cc(COc2ccc(-c3ccc(C(=O)O)cc3Cl)cc2)n(-c2c(Cl)cccc2Cl)n1 [Example 947, 2-chloro-4′-({[1-(2,6-dichlorophenyl)-3-(1-methylethyl)-1H-pyrazol-5-yl]methyl}oxy)biphenyl-4-carboxylic acid]
< 1000 | 1000 to 10000 | CC(C)(O)c1cc(-c2c(Cl)cccc2Cl)n(-c2ccc(-c3cccc(S(C)(=O)=O)c3)cc2)n1 [Example 963, 2-{5-(2,6-dichlorophenyl)-1-[3′-(methylsulfonyl)biphenyl-4-yl]-1H-pyrazol-3-yl}propan-2-ol]
< 1000 | < 1000 | CC(C)(O)c1nn(-c2c(Cl)cccc2Cl)c(-c2ccc(-c3cccc(S(C)(=O)=O)c3)cc2)c1Cl [Example 957, 2-{4-chloro-1-(2,6-dichlorophenyl)-5-[3′-(methylsulfonyl)biphenyl-4-yl]-1H-pyrazol-3-yl}propan-2-ol]
< 1000 | 1000 to 10000 | CC(C)(O)c1nn(-c2c(Cl)cccc2Cl)c(-c2ccc(-c3cccc(S(C)(=O)=O)c3)s2)c1Cl [Example 953, 2-[4-chloro-1-(2,6-dichlorophenyl)-5-{5-[3-(methylsulfonyl)phenyl]-2-thienyl}-1H-pyrazol-3-yl]propan-2-ol]
< 1000 | 1000 to 10000 | CC(C)(O)c1cc(-c2ccc(-c3cccc(S(C)(=O)=O)c3)cc2)n(-c2c(Cl)cccc2Cl)n1 [Example 956, 2-{1-(2,6-dichlorophenyl)-5-[3′-(methylsulfonyl)biphenyl-4-yl]-1H-pyrazol-3-yl}propan-2-ol]
< 1000 | 1000 to 10000 | Cc1cc(-n2nc(C(C)(C)O)c(Cl)c2-c2c(F)cccc2Cl)ccc1-c1cccc(S(C)(=O)=O)c1 [Example 971, 2-{4-chloro-4-(2-chloro-6-fluoropehnyl)-1-[2-methyl-3′-(methylsulfonyl)biphenyl-4-yl]-1H-pyrazol-3-yl}propan-2-ol]
< 1000 |  | CS(=O)(=O)c1cccc(-c2ccc(-n3cc(-c4cnco4)nc3-c3ccccc3Cl)c(Cl)c2)c1 [Example 1028, 5-(1-(3-chloro-3′-(methylsulfonyl)biphenyl-4-yl)-2-(2-chlorophenyl)-1H-imidazol-4-yl)oxazole]
< 1000 |  | CS(=O)(=O)c1cccc(-c2ccc(-n3cc(N4CCCC4)nc3-c3c(Cl)cccc3Cl)cc2)c1 [Example 1002, 2-(2,6-dichlorophenyl)-1-[3′-(methylsulfonyl)biphenyl-4-yl]-4-(pyrrolidin-1-yl)-1H-imidazole]
< 1000 |  | CS(=O)(=O)c1cccc(-c2ccc(-n3cc(-c4n[nH]c(=O)o4)nc3-c3ccccc3C(F)(F)F)cc2)c1 [Example 1023, 5-(1-(3′-(methylsulfonyl)biphenyl-4-yl)-2-(2-(trifluoromethyl)phenyl)-1H-imidazol-4-yl)-1,3,4-oxadiazol-2(3H)-one]
< 1000 |  | Cc1nnc(-c2cn(-c3ccc(-c4cccc(S(C)(=O)=O)c4)cc3)c(-c3ccccc3C(F)(F)F)n2)o1 [Example 1024, 2-methyl-5-(1-(3′-(methylsulfonyl)biphenyl-4-yl)-2-(2-(trifluoromethyl)phenyl)-1H-imidazol-4-yl)-1,3,4-oxadiazole]
> 10000 |  | CC(=O)N1CCC[C@@H]1c1cn(-c2ccc(-c3cccc(S(C)(=O)=O)c3)cc2)c(-c2ccccc2C(F)(F)F)n1 [Example 1019, 1-((2R)-2-(1-(3′-(methylsulfonyl)biphenyl-4-yl)-2-(2-(trifluoromethyl)phenyl)-1H-imidazol-4-yl)pyrrolidin-1-yl)ethanone]
> 10000 |  | Cc1nsc(-c2cn(-c3ccc(-c4cccc(S(C)(=O)=O)c4)cc3)c(-c3ccccc3C(F)(F)F)n2)n1 [Example 1037]
< 1000 |  | Cc1nc(-c2cn(-c3ccc(-c4cccc(S(C)(=O)=O)c4)cc3)c(-c3ccccc3C(F)(F)F)n2)no1 [Example 1032]

Further lines, the compound ahead of its results:

SMILES | EC50 [1] [nM] | EC50 [2] [nM]
CC(C)(O)c1cc(COc2ccc(-c3ccc(C(=O)O)cc3Cl)cc2)n(-c2c(Cl)cccc2Cl)n1 [Example 906, 2-chloro-4′-({[1-(2,6-dichlorophenyl)-3-(1-hydroxy-1-methylethyl)-1H-pyrazol-5-yl]methyl}oxy)biphenyl-4-carboxylic acid] | 1000 to 10000 | 1000 to 10000
FC(F)(F)c1cc(COc2ccc(-n3ccnc3)cc2)n(-c2c(Cl)cccc2Cl)n1 [Example 923, 1-(2,6-dichlorophenyl)-5-({[4-(1H-imidazol-1-yl)phenyl]oxy}methyl)-3-(trifluoromethyl)-1H-pyrazole] | < 1000 | 
FC(F)(F)c1cc(COc2ccc(-c3ccccc3)cc2)n(-c2ccccc2Cl)n1 [Example 111, 5-[(biphenyl-4-yloxy)methyl]-1-(2-chlorophenyl)-3-(trifluoromethyl)-1H-pyrazole] | 1000 to 10000 | 
CS(=O)(=O)c1cccc(-c2ccc(OCc3cc(C(F)(F)F)nn3-c3ccccc3Cl)c(C#N)c2)c1 [Example 926, 4-({[1-(2-chlorophenyl)-3-(trifluoromethyl)-1H-pyrazol-5-yl]methyl}oxy)-3′-(methylsulfonyl)biphenyl-3-carbonitrile] | 1000 to 10000 | 
CS(=O)(=O)c1cccc(-c2ccc(OCc3cc(C(F)(F)F)nn3-c3c(Cl)cccc3Cl)cc2)c1 [Example 891, 1-(2,6-dichlorophenyl)-5-((3′-(methylsulfonyl)biphenyl-4-yloxy)methyl)-3-(trifluoromethyl)-1H-pyrazole] | < 1000 | 
CC1CN=C(c2cn(-c3ccc(-c4cccc(S(C)(=O)=O)c4)cc3Cl)c(-c3c(Cl)cccc3Cl)n2)O1 (stereo not drawn) [Example 937, 2-{1-[3-chloro-3′-(methylsulfonyl)biphenyl-4-yl]-2-(2,6-dichlorophenyl)-1H-imidazol-4-yl}-5-methyl-4,5-dihydro-1,3-oxazole] | < 1000 | 
FC(F)(F)c1cc(COc2ccc(-n3cccc3)cc2)n(-c2ccccc2Cl)n1 [Example 8, 1-(2-chlorophenyl)-5-({[4-(1H-pyrrol-1-yl)phenyl]oxy}methyl)-3-(trifluoromethyl)-1H-pyrazole] | < 1000 | 
O=C(Oc1cccc(OCc2cc(C(F)(F)F)nn2-c2ccccc2Cl)c1)c1ccccc1 [Example 95, 3-({[1-(2-chlorophenyl)-3-(trifluoromethyl)-1H-pyrazol-5-yl]methyl}oxy)phenyl benzoate] | > 10000 | 
CS(=O)(=O)c1cccc(-c2ccc(OCc3cc(C(F)(F)F)nn3-c3ccccc3Cl)cc2Cl)c1 [Example 911, 5-({[2-chloro-3′-(methylsulfonyl)biphenyl-4-yl]oxy}methyl)-1-(2-chlorophenyl)-3-(trifluoromethyl)-1H-pyrazole] | < 1000 | 
CS(=O)(=O)Cc1ccc(C#Cc2cc(C(F)(F)F)nn2-c2ccccc2Cl)cc1 [Example 110, 1-(2-chlorophenyl)-5-({4-[(methylsulfonyl)methyl]phenyl}ethynyl)-3-(trifluoromethyl)-1H-pyrazole] | 1000 to 10000 | 
CC(=O)c1cccc(NC(=O)Nc2cc(C(F)(F)F)nn2-c2ccccc2C(F)(F)F)c1 [Example 105, N-(3-acetylphenyl)-N′-{3-(trifluoromethyl)-1-[2-(trifluoromethyl)phenyl]-1H-pyrazol-5-yl}urea] | > 10000 | 
CS(=O)(=O)c1cccc(-c2ccc(OCc3cc(C(F)(F)F)nn3-c3ccccc3Cl)c(F)c2)c1 [Example 925, 1-(2-chlorophenyl)-5-({[3-fluoro-3′-(methylsulfonyl)biphenyl-4-yl]oxy}methyl)-3-(trifluoromethyl)-1H-pyrazole] | < 1000 | 
O=C(O)Cc1ccc(-c2ccc(OCc3cc(C(F)(F)F)nn3-c3ccccc3Cl)cc2)cc1 [Example 98, [4′-({[1-(2-chlorophenyl)-3-(trifluoromethyl)-1H-pyrazol-5-yl]methyl}oxy)biphenyl-4-yl]acetic acid] | > 10000 | 
CC(C)Oc1ccccc1-n1nc(C(F)(F)F)cc1C(=O)NCc1cccc(C(F)(F)F)c1 [Example 104, 1-{2-[(1-methylethyl)oxy]phenyl}-3-(trifluoromethyl)-N-{[3-(trifluoromethyl)phenyl]methyl}-1H-pyrazole-5-carboxamide] | > 10000 | 
